Reference: patent US6291657A (priority 1993, dated 2001)
“Also recorded” adds a separate entry of the source.

Key:
[1] = tested on: glycolipid biosynthesis in HL-60 cells; experiment: Inhibition of glycolipid biosynthesis in HL-60 cells, [14C]-palmitic acid labelling, 1D-TLC;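 on all read-outs here: cells cultured 24 h with or without test compound, total cellular lipids resolved by one-dimensional TLC and detected by autoradiography, inhibition shown as missing Glc-Cer and gangliosides versus untreated cells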; format: cell-based, human; conditions: for inhibition of glycolipid biosynthesis: HL-60, 500 μM, 1D-TLC (FIG. 1); for effect of N-alkyl chain length on inhibition of glycolipid biosynthesis (loss of detectable Glc-Cer): HL-60, 0.5 mM, 1D-TLC (FIG. 4)
[2] = tested on: UDP-glucose:N-acylsphingosine glucosyltransferase; experiment: Inhibition of UDP-glucose:N-acylsphingosine glucosyltransferase; format: biochemical, rat brain, mouse macrophage (WEHI-3B); conditions: for IC50: highest concentrations tested, read-out: IC50 (not inhibitory)
[3] = tested on: Glc-Cer accumulation in WEHI-3B murine macrophage cells; experiment: In vitro Gaucher's disease model: CBE induced glycolipid storage in WEHI-3B cells, 1D-TLC; format: cell-based; conditions: CBE
Procedure: In this model, the murine macrophage cell line WEHI-3B was cultured in the presence of an irreversible glucocerebrosidase inhibitor, conduritol β epoxide (CBE), to mimic the inherited disorder found in Gaucher's disease. WEHI-3B cells are well-known, widely distributed and readily available murine macrophage cells. They are described in Cancer Res. 37, 546-550 (1977), and are readily available from the American Type Culture Collection, Rockville, Md, under accession number ATCC TIB 68. The compounds of the invention prevent lysosomal glycolipid storage which is useful for the management of Gaucher's disease and other glycolipid storage disorders as illustrated hereinafter in Table 3. Gaucher's disease is an autosomal recessive disorder characterized by an impaired ability to degrade glucocerebroside (glucosyl ceramide, Glc-Cer) due to mutations in the gene encoding β-glucocerebrosidase (β-D-glucosyl-N-acylsphingosine glucohydrolase, EC 3.2.1.45). This defect results in the lysosomal accumulation of Glc-Cer in cells of the macrophage-monocyte system [Barranger and Ginns, in The Metabolic Basis of Inherited Diseases, ed. Scriver et al., pp. 1677-1698, McGraw-Hill, New York, (1989); Beutler, Science 256, 794-799 (1992)]. By slowing the rate of glycolipid synthesis, the impaired catabolism of Glc-Cer can be offset, thereby leading to the maintenance of a balanced level of Glc-Cer.
FIGS. 5 and 6 show the analysis of NB-DNJ and NB-DGJ in an in vitro Gaucher's disease model.
The in vitro Gaucher's disease model was prepared as follows: WEHI-3B cells (American Type Culture Collection, Rockville, Md., U.S.A.) were maintained in logarithmic phase growth for 14 days in RPMI-1640 medium, 10% FCS, in the presence or absence of 50 μM conduritol β epoxide (CBE, Toronto Research Chemicals, Downsview, Canada) with or without NB-DNJ or NB-DGJ. Cells were passaged every 3 days and compound concentrations maintained throughout. Equal cell numbers (5×10^6) were harvested, extracted in 1 ml chloroform: methanol (2:1 v/v) overnight at 4° C., the extracts centrifuged, the chloroform:methanol extract retained and the pellet re-extracted as above for 2 hr. at room temperature. Pooled extracts were dried under nitrogen, re-dissolved in 10 μl chloroform:methanol (2:1 v/v) and separated by 1D-TLC in chloroform:methanol:water […]. Plates were air dried and visualized using α-naphthol (1% w/v in methanol) followed by 50% (v/v) sulphuric acid.

WEHI-3B cell lysosomes = experiment: Transmission electron microscopy of lysosomes of CBE treated WEHI-3B cells; format: cell-based, murine; conditions: transmission electron microscopy (FIG. 6)

Compound	effect of N-alkyl chain length on inhibition of glycolipid biosynthesis (loss of detectable Glc-Cer) [1]	other results
CCCCN1C[C@@H](O)[C@@H](O)[C@H](O)[C@H]1CO [NB-DMJ, N-butyl deoxymannojirimycin]		inhibition of glycolipid biosynthesis [1]: without effect
OC[C@H]1NC[C@H](O)[C@@H](O)[C@@H]1O [DNJ, deoxynojirimycin]	no effect	inhibition of glucose transfer ([2]; highest concentration tested 6.1 mM (FIG. 8)): not inhibitory at the highest concentration tested; IC50 [2]: > 5 mM
CCN1C[C@H](O)[C@@H](O)[C@@H](O)[C@H]1CO [N-ethyl DGJ]	no effect; also recorded: inactive	
CCCCCCN1C[C@H](O)[C@@H](O)[C@@H](O)[C@H]1CO [N-hexyl DGJ, N-hexyl deoxygalactonojirimycin]	completely prevented glycolipid biosynthesis; also recorded: completely inhibited glycolipid biosynthesis	prevention of glycolipid storage in in vitro Gaucher's disease model (in words) [3]: offset glucoceramide accumulation
CCCCCCN1C[C@H](O)[C@@H](O)[C@H](O)[C@H]1CO [N-hexyl DNJ]	completely inhibited glycolipid biosynthesis	
CCCN1C[C@H](O)[C@@H](O)[C@@H](O)[C@H]1CO [N-propyl DGJ, N-propyl deoxygalactonojirimycin]	partial inhibitory activity; also recorded: partially active	
CCCCN1C[C@H](NC(C)=O)[C@@H](O)[C@H](O)[C@H]1CO [NB-NAG, N-butyl 2-acetamido-1,2,5-trideoxy-1,5-imino-D-glucitol]		inhibition of glycolipid biosynthesis [1]: without effect
CN1C[C@H](O)[C@@H](O)[C@@H](O)[C@H]1CO [N-methyl DGJ]	no effect; also recorded: inactive	
CCCCN1C[C@@H](O)[C@H](O)[C@H](O)[C@@H]1C [NB-DFJ]		inhibition of glycolipid biosynthesis [1]: without effect
CCCN1C[C@H](O)[C@@H](O)[C@H](O)[C@H]1CO [N-propyl DNJ]	partial inhibitory activity	
CN1C[C@H](O)[C@@H](O)[C@H](O)[C@H]1CO [N-methyl DNJ]	no effect	
OC[C@H]1NC[C@H](O)[C@@H](O)[C@H]1O [DGJ, Deoxygalactonojirimycin]	no effect; also recorded: inactive	inhibition of glucose transfer ([2]; highest concentration tested 5.0 mM (FIG. 8)): not inhibitory at the highest concentration tested; IC50 [2]: > 5 mM
O[C@H]1[C@H](O)[C@@H](O)[C@@H]2O[C@@H]2[C@@H]1O [CBE, conduritol β epoxide]		glycolipid accumulation in lysosomes (WEHI-3B cell lysosomes): glycolipid accumulation observed in the lysosomes
